Experimental data reported in patent publication US20240208896A1, “PRODRUGS OF KV7 CHANNEL OPENERS” (Xyzagen, Inc., priority 2021, published 2024).

Key:
[1] = Acid and organic solution stability, HPLC-UV 250 nm; details: 5 mg/mL; for Degradation / conversion to ezogabine in solution: acidic solutions and organic solvents, up to 3 weeks
Experimental: An HPLC-UV Vis method was developed using 0.1% Formic acid in water as mobile phase A and 0.1% Formic acid in acetonitrile as mobile Phase B. A gradient method was developed ramping from 10% A to 90% B over 8 minutes and then returning to 10% A at 8.5 minutes on a 4.6×50 mm Zorbax C-18 column. Injections of 10 uL of stability solutions were injected for analyte detection.
[…] Aliquots were collected at serial time points and then diluted to a nominal concentration of 100 ug/mL for injection to the HPLC and 250 nm monitored by the diode array detector. Data at approximately 10 days is presented.
Aliquots were collected at serial time points and then diluted to a nominal concentration of 100 ug/mL for injection to the HPLC and 250 nm monitored by the diode array detector.
(§1) It was also evaluated at 2 N HCl at 37° C. Aliquots were collected at serial time points and then diluted to a nominal concentration of 100 ug/mL for injection to the HPLC and 250 nm monitored by the diode array detector.
as §1, §1, §1

[2] = Rat PK at equimolar dose to Ezogabine (20 mg/kg) in 0.5% methylcellulose; details: male cannulated rats; equimolar to Ezogabine 20 mg/kg; 0.5% methylcellulose; analyte the dosed prodrug
Experimental: (§2) Blood samples were collected at the same time points over 24 hours to generate a concentration time profile. Two male rats were dosed per group. Plasma samples were analyzed by LC/MS/MS and the resulting concentration time profiles and PK parameters are provided.
as §2, §2

SMILES | Colour of stability solution [1] | Ezogabine Area (formed from the prodrug) ([1]; 1N HCl, room temp., normal light, 437 h) [mAU] | Ezogabine Area (formed from the prodrug) ([1]; 2N HCl 37C, 437 h) [mAU] | Ezogabine Area (formed from the prodrug) ([1]; 2N HCl, room temp., normal light, 437 h) [mAU] | Ezogabine Area (formed from the prodrug) ([1]; Methanol, room temp., normal light, 437 h) [mAU] | Degradation / conversion to ezogabine in solution [1] | % Remaining ([1]; 437 h) [%] | AUClast/D [2] [ng·h/mL/mg/kg] | Cmax/D [2] [ng/mL/mg/kg] | Ezogabine Area (formed from the prodrug) ([1]; 0.1N HCl, room temp., normal light, 441 h) [mAU] | Ezogabine Area (formed from the prodrug) ([1]; 1N HCl, room temp., normal light, 441 h) [mAU] | Ezogabine Area (formed from the prodrug) ([1]; 2N HCl 37C, 441 h) [mAU] | Ezogabine Area (formed from the prodrug) ([1]; 2N HCl, room temp., normal light, 441 h) [mAU] | Ezogabine Area (formed from the prodrug) ([1]; Methanol, room temp., normal light, 441 h) [mAU]
CCOC(=O)Nc1ccc(NCc2ccc(F)cc2)cc1NC(=O)[C@H](N)CO [Compound 6] | remained clear and colorless through Day 18 | 58 | 461 | 177 | 184 | very little degradation to ezogabine | 67.7 | 199 | 233 |  |  |  |  | 
CCNC(=O)CC[C@H](N)C(=O)Nc1cc(NCc2ccc(F)cc2)ccc1NC(=O)OCC.Cl [Compound 29] |  |  |  |  |  | exhibits degradation under acidic conditions and also conversion to ezogabine |  | 305 | 44.2 | 0 | 1241 | 1755 | 1659 | 0
